From patent publication US20120130146A1, “CONTINUOUS ADMINISTRATION OF CILENGITIDE IN CANCER TREATMENTS” (Merck Patent GmbH, priority 2009, published 2012) come the findings set out here.

One test deals with A498. The test is described as follows: Cell proliferation assay on A498 renal carcinoma cells. In kind it is cell-based, human. As to conditions: for pEC50: Homo sapiens, Renal A498, chemotherapeutic alone or + Cilengitide. From the text:
(§1) The methods established and described in detail previously (Goodman and Hahn a; b) were used to measure the effect of combinations of integrin inhibitors and chemotherapeutics on carcinoma cell and human endothelial cell proliferation.
(§2) Points were run in duplicate or in triplicate. Reagent blanks, containing media plus Alamar Blue without cells, were run on each plate. Blank values were subtracted from test values and were routinely 5-10% of uninhibited control values.
(§3) 5.5 Methods of Evaluation and Statistics Chemotherapeutic agents and αv-integrin blockers were serially diluted alone or together (combination therapy). In some assays the chemotherapeutic agent was serially diluted alone or in combination with of alpha-v integrin blocker. Growth inhibition curves were plotted and a shift of the combination therapy curve to lower concentrations in relation to the single agent curves was interpreted as an additional effect, produced by combination versus monotherapy.
(§4) The αv-integrin competitive inhibitor Cilengitide (EMD 121974) was tested alone and in combination with vinorelbine in a serum growth stimulation assay using human carcinoma cells or human umbilical vein endothelial cells (HUVECs). In these assays cells are cultured in serum, or in an endothelial growth stimulation medium (Goodman & Hahn).
Cilengitide concentration is 2 μM (constant).

The subject of the next test is A549. The test is described as follows: Serum growth stimulation assay on A549 NSCLC cells, Example 5. It is filed as cell-based, human. The settings on record: for pEC50: Homo sapiens, NSCLC A549, chemotherapeutic alone or + Cilengitide.
Excerpt: as §1, §2, §3, §4

For test [1], the system named is human umbilical vein endothelial cells (HUVECs). The test is described as follows: Growth (Alamar Blue) assay on HUVEC, Example 5. In kind it is cell-based. As to conditions: Homo sapiens.
Excerpt: as §1, §2, §3, §4

The subject of the next test is Detroit 562. The test is described as follows: Cell proliferation assay on SCCHN Detroit 562 cells. It is filed as cell-based, human.
Where [2] appears, read: in combination with 2 μM Cilengitide.

The structures appear in SMILES notation. pEC50, pIC50: −log10 of the molar value.

For `CC(=O)O[C@H]1C(=O)[C@@]2(C)[C@H]([C@H](OC(=O)c3ccccc3)[C@]3(O)C[C@H](OC(=O)[C@H](O)[C@@H](NC(=O)c4ccccc4)c4ccccc4)C(C)=C1C3(C)C)[C@]1(OC(C)=O)CO[C@@H]1C[C@@H]2O` [Paclitaxel], the pEC50 with A498 was 7.00; with A549, 8.10. Moreover, the negative-log IC50 (pIC50) was 8.00 in test [1] (agent alone) and 10.30 in test [1] (setting [2]).
Regarding `CCC1=C[C@@H]2CN(C1)Cc1c([nH]c3ccccc13)[C@@](C(=O)OC)(c1cc3c(cc1OC)N(C)[C@H]1[C@@](O)(C(=O)OC)[C@H](OC(C)=O)[C@]4(CC)C=CCN5CC[C@]31[C@@H]54)C2` [Vinorelbine], the “enhancement of growth inhibition by the presence of cilengitide” value with A498 (A498), in the test on Detroit 562 and with A549 (A549) was “synergistically enhanced” in each case. Besides, the pEC50 in the test on A498 was 7.22; in the test on A549 it was 8.10. In addition, the pIC50 was 7.70 in test [1] (agent alone) and 9.10 in test [1] (setting [2]).
